Tests used:
[1] = test system: von Bezold-Jarisch reflex evoked by 5-HT (serotonin); assay: Antagonism of the von Bezold-Jarisch reflex evoked by 5-HT in anaesthetized rats; format: in vivo; conditions: Rattus norvegicus; 0.0316 mg/kg IV in anesthetized rats; read-out: Antiserotonin: von Bezold-Jarisch reflex % change in serotonin-induced bradycardia
Experimental: F. Antagonism of the von Bezold-Jarisch Reflex
The compounds are evaluated for antagonism of the von Bezold-Jarisch reflex evoked by 5-HT (serotonin) in anaesthetized rats according to the method described in European Patent Application 200-444 (Beecham Group).
Male rats (250-350 g) are anaesthetized with urethane (1.25 g/kg intraperitoneally), and blood pressure and heart rate are recorded as described by Fozard J. R. et al., J. Cardiovasc. Pharmacol. 2, 229-245 (1980). A submaximal dose of 5-HT (usually […]) is given repeatedly by the intravenous route and changes in heart rate quantified. Compounds are given intravenously and the inhibition of the 5-HT evoked response is measured. In addition, the concentration required to reduce the 5-HT evoked response to 50% of the control response (ED50) can be determined.
^3 Von BezoldJarisch reflex % change in serotonininduced bradycardia
at 0.0316 mg/kg IV in anesthesized rats.

[2] = test system: gastric emptying of test meal; assay: Gastric emptying of a test meal in fasted rats; format: in vivo; conditions: Rattus norvegicus, 1 h; for change in vivo at 10 mg/kg: 10 mg/kg IP; for change in vivo at 9 mg/kg: 9 mg/kg IP (printed 09)
Experimental: B. Effect of Invention Compounds on Gastric Emptying of a Test Meal in Fasted Rats
The procedure used to test compounds of the present invention for gastric motility enhancing activity is that of Droppleman et al., J. Pharmacol. Methods, 4,227(1980).
Each animal is dosed intraperitoneally (9 or 10 mg/kg) with a test compound or control. After 30 minutes each animal is given 3 mL of a methylcellulose-based test meal formulation. Sixty minutes after administration of the test meal, each animal is sacrificed by cervical dislocation, and the stomach is removed and weighed. The stomach is cut open, rinsed and dried, and reweighed. This difference between the full and empty weights (amount of meal remaining in stomach) is subtracted from the weight of the original test meal to determine the meal amount emptied from the stomach during the test period.
^1 % change in gastric emptying of test meal in rats (dose, mg/kg IP)

cisplatin-induced emesis = assay: Cisplatin-induced emesis in dogs; format: in vivo; conditions: Canis lupus familiaris; 1 mg/kg IV; cisplatin 3.0 mg/kg IV; 5 hours; read-out: Antiemetic: % change in emetic episodes in dogs induced by cisplatin
Experimental: A. Effect of Invention Compounds on Cisplatin-induced Emesis in Dogs
The procedure used to test compounds of the present invention for antiemetic properties is a modification of the method of Gylys et al., Res. Commun. Chem. Pathol. Pharm., 23, 61(1979).
Adult, mongrel unfasted dogs of both sexes are randomly assigned into treatment groups, with each treatment group consisting of four dogs. On the dosing day all dogs are given cisplatin, 3.0 mg/kg, intravenously. Sixty minutes later, the dogs in the control treatment group are given deionized water, 0.1 mL/kg intravenously and dogs receiving test compounds are given the test compound in solution (1 mg/kg, IV). All doses are administered as a solution by means of a syringe and needle, and each dog's emetic episodes are recorded for 5 hours after the administration of cisplatin.
^2 % change in emetic episodes in dogs at 1 mg/kg IV induced by […]

[3] = test system: exploratory light/dark behavior; assay: Anxiolytic test, exploratory light/dark (mice); format: in vivo; conditions: 10 mg/kg IP, significant increase as compared with the controls (30%)
Experimental: Exploratory Light/Dark (mice)
This method has been described by Young and Johnson (1988) and is a modification of the procedure described by Costall and Naylor (1988). A two compartment light-dark activity monitoring device (Digiscan Model RXYZCM16, Omnitech Electronics Inc., Columbus, Ohio) is used. A 90W light source located 30 cm above the box provides light to the lit portion of the apparatus. Behavioral testing is conducted in a sound-attenuated, darkened room illuminated with red light (25W red bulb) only.
Each animal (mouse) receives a dose or doses of either the test, reference, or control article. The animal is placed at the center of the illuminated area and the behavioral activity tallied over a 5 minute period by use of the Digiscan analyzer. Behavioral variables recorded included: the time spent in the lit and dark areas, the number of rearings in the lit and dark areas, the number of locomotor activity counts in the lit and dark areas, the number of transitions between the lit and dark and lit areas, the latency to make the first transition from the lit area to the dark area, rearing time in the lit and dark areas, locomotor time in the lit and dark areas, and resting time in the lit and dark areas. Appropriate statistical analyses for each measure are performed. […]

canine Purkinje fibers = assay: Cellular electrophysiologic effects in canine Purkinje fibers in vitro; format: cell-based, dog (canine); conditions: Canis lupus familiaris, 20 min, 10^-4 M, after 20 min exposure, read-out: increase in action potential duration at 90% repolarization (APD90)
Experimental: G. Measurement of Cellular Electrophysiologic Effects in Canine Purkinje Fibers in Vitro
Dogs (12-18 kg) were anesthetized with sodium pentobarbital (30 mg/kg IV). The heart of each dog was rapidly removed through a right lateral thoracotomy and placed in a chilled, oxygenated Tyrode's solution. Purkinje fibers from the right and left ventricles were excised and mounted in a Lucite chamber. The tissue was superfused at a rate of 10-15 mL/min with Tyrode's solution. The temperature of the superfused Tyrode's was maintained at 37° C. and gassed with 95% oxygen-5% carbon dioxide mixture.
The Purkinje fibers were stimulated (paced at cycle length of 400 to 1000 msec) with a silver bipolar wire electrode placed on the surface of the tissue. Transmembrane action potentials were recorded with a glass capillary microelectrodes filled with 3M KCl. […] The measurements derived from the action potential were Vmax (upstroke velocity), APD50 (action potential duration at 50% repolarization), and APD90 (action potential duration at 90% repolarization) as previously described (Bigger and Mandel, 1970; Wu and Hoffman, 1987). […] Measurements of the action potential parameters were recorded after 20 min of test drug exposure. […] Changes in the action potential measurements produced by the test compound were analyzed for statistical significance using a paired-t test. […]

| Compound | change in vivo at 0.0316 mg/kg [1] [%] | change in vivo at 10 mg/kg [2] [%] | change in vivo at 1 mg/kg (cisplatin-induced emesis) [%] | change in vivo at 9 mg/kg [2] [%] | time spent in the lit area [3] [%] | activation at 100 µM (canine Purkinje fibers) [%] |
| --- | --- | --- | --- | --- | --- | --- |
| Cn1nc(C(=O)OCC23CCCN(CC2)C3)c2ccccc21 (stereo not drawn) [Example 15, 1-Methyl-1H-indazole-3-carboxylic acid 1-azabicyclo[3.2.1]oct-5-ylmethyl ester] | -72 | 31 | -93 | – | – | – |
| COc1cc(N)c(Cl)cc1C(=O)OCC12CCCN(CCC1)C2 [Example 13, 4-Amino-5-chloro-2-methoxybenzoic acid 1-azabicyclo[3.3.1]non-5-ylmethyl ester] | -23 | – | -50 | 41 | – | – |
| O=C(OCC12CCCN(CC1)C2)c1c[nH]c2ccccc12 (stereo not drawn) [Example 11, 1H-Indole-3-carboxylic acid 1-azabicyclo[3.2.1]oct-5-ylmethyl ester] | -86 | – | -85 | – | – | – |
| Cn1cc(C(=O)OCC23CCCN(CC2)C3)c2ccccc21 (stereo not drawn) [Example 12, 1-Methyl-1H-indole-3-carboxylic acid 1-azabicyclo[3.2.1]oct-5-ylmethyl ester] | -81 | – | – | – | 58 | – |
| COCCOc1cc(N)c(Cl)cc1C(=O)NCC12CCCN(CCC1)C2 [Example 6, 4-Amino-N-(1-azabicyclo[3.3.1]non-5-ylmethyl)-5-chloro-2-(2-methoxyethoxy)benzamide] | -30 | – | – | – | – | – |
| COc1cc(N)c(Cl)cc1C(=O)OCC12CCCN(CC1)C2 (stereo not drawn) [Example 10, 4-Amino-5-chloro-2-methoxybenzoic acid 1-azabicyclo[3.2.1]oct-5-ylmethyl ester] | -82 | 47 | -82 | – | – | – |
| O=C(OCC12CCCN(CCC1)C2)c1c[nH]c2ccccc12 [Example 14, 1H-Indole-3-carboxylic acid 1-azabicyclo[3.3.1]non-5-ylmethyl ester] | -0.3 | – | – | 10 | – | – |
| CNc1cc(OC)c(C(=O)NCC23CCCN(CC2)C3)cc1Cl (stereo not drawn) [Example 2] | – | – | -63 | 62 | – | – |
| COc1cc(N)c(Cl)cc1C(=O)NCC12CCCN(CCC1)C2 [Example 4, 4-Amino-N-(1-azabicyclo[3.3.1]non-5-ylmethyl)-5-chloro-2-methoxybenzamide] | -32 | 31 | -62 | – | – | – |
| CNc1cc(OC)c(C(=O)NCC23CCCN(CCC2)C3)cc1Cl [Example 5, N-(1-Azabicyclo[3.3.1]non-5-ylmethyl)-5-chloro-2-methoxy-4-(methylamino)benzamide] | – | – | -71 | 58 | – | – |
| Cn1cc(C(=O)NCC23CCCN(CCC2)C3)c2ccccc21 [Example 8] | – | – | -49 | – | – | – |
| CS(=O)(=O)Nc1ccc(C(=O)NCC23CCCN(CCC2)C3)cc1 [Example 9, N-(1-Azabicyclo[3.3.1]non-5-ylmethyl)-4-[(methylsulfonyl)amino]benzamide] | – | – | – | – | – | 8.5 |
| COc1cc(N)c(Cl)cc1C(=O)NCC12CCCN(CC1)C2 (stereo not drawn) [Example 1, 4-Amino-N-(1-azabicyclo[3.2.1]oct-5ylmethyl)-5-chloro-2-methoxybenzamide] | – | 47 | -76 | – | – | – |
| COCCOc1cc(N)c(Cl)cc1C(=O)NCC12CCCN(CC1)C2 (stereo not drawn) [Example 3] | -74 | 31 | -51 | – | – | – |
